In a melting point compilation (Tetko et al.; mined from patent text by program, amines drawn as free bases though some values may be those of a salt) one finds melting point data, which are given here for 89 compounds.

Each structure is given as a SMILES string.

The term melting point denotes the temperature of the solid-liquid transition.

Consider `Nc1ccc2[nH]c3cc(-c4ccccc4Cl)c4c(c3c2c1)C(=O)NC4=O`, for which the melting point lay within 216 to 222 °C.

Compound `C#Cc1ncn2c1CN(C)C(=O)c1cc(F)ccc1-2` displayed a melting point of 207 to 208 °C.

Regarding `CCCCCCCCCCCCS(=O)(=O)NN(C(=O)c1ccccc1)c1cc(Cl)c(C)cc1O`, the melting point fell in the range of 124 to 125 °C.

In the case of `CCCCNC(=O)NS(=O)(=O)c1cccc(C(=O)OC)c1I`, the melting point is 163 to 167 °C.

For the compound `CC1(C)CC(c2ccc3ccccc3c2)c2ccc(O)cc2O1` (centres undefined), the melting point lay within 189 to 191 °C.

As to `COc1ccc(C2CN(Cc3ccccc3)Cc3c2ccc(OC)c3Cl)cc1OC` (centres undefined), the melting point lay within 88 to 91 °C.

Compound `COc1cccc(C(=O)C=CC2=CCC(OC)(N(C)C)C=C2)c1OC` (centres undefined) came in with a melting point of 168 to 169 °C.

With `CC(O)=C(C#N)C(=O)Nc1ccc(Br)cc1Br`, the melting point was determined as 181 °C.

With `CCOC(=O)C(Br)C(=O)Nc1ccc(Cl)cc1` (centres undefined), the melting point was 117 to 119 °C.

Take `O=c1oc2cc(OCc3nnn[nH]3)cc(OCc3nnn[nH]3)c2c2c1CC(c1ccccc1)CC2` (centres undefined): the melting point fell in the range of 235 to 245 °C.

In turn, `CS(=O)(=O)c1ccc(Oc2c(-c3ccc(S(C)(=O)=O)cc3)cnn(CC(F)(F)F)c2=O)cc1` came in with a melting point of 212 to 213 °C.

In turn, `CC(C)(C)NC(=O)[C@@H]1Cc2ccccc2CN1C(=O)OCc1ccccc1` came in with a melting point of 105 to 106 °C.

Take `c1ccc(COc2ccc(C3CO3)nc2)cc1` (centres undefined): the melting point was in the range of 45 to 47.5 °C.

As to `CN1CCN(Cc2nc3cccnc3n2CCO)CC1`, the melting point is 89.5 °C.

For `CCCCCCCCCCCCCCOc1ccc(C(=O)O)s1`, the melting point fell in the range of 95 to 96 °C.

In the case of `CN(C)c1ccc(N(c2ccccc2)C2(c3ccc(N(C)C)cc3)OC(=O)c3ccccc32)cc1` (centres undefined), the melting point is 163 to 166 °C.

As for `Cc1ccc(S(=O)(=O)OC2CC3(C)C=CC(C)(C2)O3)cc1` (centres undefined), the melting point is 75 to 77 °C.

`N#CC=C(N)c1ccc2ccccc2c1` came in with a melting point of 85 to 90 °C.

On to `O=C1C(=O)c2ccccc2C2=C1SCC1(CCN(C(=O)c3cccc(Cl)c3)CC1)O2`, for which the melting point fell in the range of 155 to 158 °C.

For `Cn1nnnc1CC(O)(c1ccccc1)c1ccc(F)cc1` (centres undefined), the melting point was in the range of 113 to 114 °C.

For `C=CCn1c(Oc2cnn(-c3c(Cl)cc(C(F)(F)F)cc3Cl)n2)nc(C#N)c1C#N`, the melting point was in the range of 121 to 131 °C.

For `COC(=O)CCC(=O)c1ccc(NS(C)(=O)=O)cc1`, the melting point lay within 181 to 183 °C.

Regarding `CCOC(=O)c1cc2ccc(-c3ccc(C)cc3)cc2n1C`, the melting point lay within 98 to 99 °C.

For `O=C(NCCCCO)c1c([N+](=O)[O-])ccc(N(CCBr)CCBr)c1[N+](=O)[O-]`, the melting point is 114 to 117 °C.

The compound `Fc1ccc(-c2ncn(C3CCNCC3)c2-c2ccnc(Oc3cccc(F)c3)n2)cc1` had a melting point of 155 to 156 °C.

The compound `CC(C)(C)c1cc(C(=O)c2ccc([N+](=O)[O-])cc2)cc(C(C)(C)C)c1O` displayed a melting point of 178 to 180 °C.

For the compound `N#CC(C(N)=O)c1ccccc1[N+](=O)[O-]` (centres undefined), the melting point is 172 to 174 °C.

Compound `CS(=O)(=O)c1ccc(-c2cc(Br)c3cnc(Nc4ccc(N5CCOCC5)cc4)nn23)cc1` came in with a melting point of 242 to 244 °C.

`Cc1nnc(NCCCN2CCN(C)CC2)c2cc3ccccn3c12` displayed a melting point of 60 °C.

On to `O=C1CC(c2cccc(Cl)c2)c2cc(C(c3ccc(Cl)cc3)n3ccnc3)cc3c2N1CCC3` (centres undefined), for which the melting point came to 93.6 °C.

The compound `Cn1c(C(F)(F)F)cc(=O)n(-c2cc(OCSc3ccccc3)c(Cl)cc2F)c1=O` came in with a melting point of 91 to 94 °C.

For the compound `Cn1nc(-c2c(F)cccc2Cl)nc1-c1sc(Cl)c(Cl)c1Cl`, the melting point was 129 to 130 °C.

Consider `c1ccc(-c2cc(-c3ccc(-c4nccc5ccccc45)cc3)cc(-c3nc(-c4ccccc4)nc(-c4ccccc4)n3)c2)cc1`, for which the melting point came out at 280 °C.

With `CCCCS(=O)c1ccc(-n2[nH]c3ccccc3c2=O)cc1` (centres undefined), the melting point fell in the range of 168 to 169 °C.

`C(=Cc1ccc(N(c2ccccc2)c2ccccc2)cc1)c1ccc(N(c2ccccc2)c2ccccc2)cc1` yielded a melting point of 247 to 259 °C.

On to `O=C(c1ccc(Cl)cc1)c1ccc2c(c1)C(=O)N(Cc1cccnc1)C2=O`, for which the melting point was in the range of 132 to 134 °C.

For the compound `Cc1c(CC(=O)O)c2cc(C(=O)C(C)C)cc3c2n1CCC3`, the melting point was 162 °C.

Consider `Cc1cccc(-c2cnn(-c3ccnc(-c4ccc(CN5CCOCC5)cc4)c3)c2)n1`, for which the melting point worked out at 128 °C.

In turn, `C[C@@H]1CNC(=O)c2cc3ccc(C(F)(F)F)cc3n21` yielded a melting point of 201 to 204 °C.

As to `CCOC(=O)c1ccc(C=C(C)c2cc3c(s2)C(C)(C)CCC3(C)C)cc1`, the melting point lay within 118 to 120 °C.

`COC(=O)c1sc2ccc([N+](=O)[O-])cc2c1N` returned a melting point of 208 to 210 °C.

On to `Cc1c(C)c2c(c(C)c1N)CC(C)(CN1CCC(CCO)CC1)O2` (centres undefined), for which the melting point lay within 94 to 95 °C.

For the compound `CCCCC(CC)C(=O)Nc1ccc2ccn(Cc3ccc(C(=O)OC)c4ccoc34)c2c1` (centres undefined), the melting point lay in the range of 164 to 167 °C.

`CCOC(=O)/C=C/c1cn(-c2ccc(C(F)(F)F)cn2)nc1C(C)C` came in with a melting point of 112 to 113 °C.

Take `FC(F)(F)c1cccc(C(c2ccc3ncccc3c2Cl)n2cncn2)c1` (centres undefined): the melting point came to 144 °C.

The compound `COc1cc2c(cc1OC)CC(=O)N(CCCN(C)C1CCc3cc(Cl)c(Cl)cc3C1)CC2` (centres undefined) showed a melting point of 130 °C.

As for `CNC(=NCCSCc1cnc(C)[nH]1)NC#N`, the melting point lay within 141 to 142 °C.

Regarding `CCc1cn(S(C)(=O)=O)c2c1C(=O)CC(c1ccccc1)C2` (centres undefined), the melting point lay within 153 to 154 °C.

As to `CC(=O)OCCCCCC1CC2=CC(=O)CCC2C2C(F)CC3(C)C(=O)CCC3C12` (centres undefined), the melting point was 78.4 °C.

For the compound `CCCCc1nc2cnc3cccnc3c2n1CCNC(=O)OC(C)(C)C`, the melting point was 198 to 199 °C.

`CNc1nc2[nH]c(-c3cccc(CNC(=O)COC)n3)cc2c2c1ncn2C` yielded a melting point of 263 °C.

`CON(c1ccc([N+](=O)[O-])cc1Cl)S(=O)(=O)c1ccc(Cl)c(Cl)c1` registered a melting point of 132 to 133 °C.

On to `CCOC(=O)C(=O)Nc1ccc(C#N)cc1[N+](=O)[O-]`, for which the melting point came to 152 °C.

Take `N[C@H]1CCN(C(=O)c2cc(C(F)(F)F)cc(C(F)(F)F)c2)[C@H](Cc2ccc(Cl)cc2)C1`: the melting point lay in the range of 79 to 81 °C.

In the case of `O=C(O)CN(CCN(CC(=O)O)CC(=O)O)CCN(CC(=O)O)CC(=O)Nc1ccccc1`, the melting point stood at 125 °C.

The compound `CN(C(=O)CCS(C)(=O)=O)c1nnc(-c2cccnc2)s1` registered a melting point of 199 to 201 °C.

For `COc1ccc(-n2cc(C3(O)CN4CCC3CC4)nn2)cc1` (centres undefined), the melting point worked out at 174 °C.

For `CC(=O)OC1CSC(Oc2ccc3nc(C)sc3c2)C(OC(C)=O)C1OC(C)=O` (centres undefined), the melting point was determined as 160 °C.

For `CCCCCCCc1ccc(C(=O)CCCCC(=O)O)cc1`, the melting point was in the range of 80 to 81 °C.

Consider `N#Cc1cc2ccc(Cl)cc2[nH]c1=O`, for which the melting point was 306 to 309 °C.

`Nc1cccc(-c2ccc(OCC3CCN3)c3ccccc23)n1` (centres undefined): the melting point fell in the range of 135 to 150 °C.

`COc1ccc(C(=O)Cc2ccccc2)c(O)c1` had a melting point of 87 to 88 °C.

`COC(=O)C(=CC(c1ccccc1)c1ccccc1)C(=O)OC` showed a melting point of 120 to 122 °C.

As to `CCOC(=O)c1cc([N+](=O)[O-])c(Cl)nc1C(=O)OCC`, the melting point was 70 to 72 °C.

The compound `CCOC(=O)c1cn(-c2ccc(OC)c(OC)c2)cn1` gave a melting point of 125 to 126 °C.

As for `CC(=O)Nc1c(-c2c(F)cc(F)cc2F)c(Cl)nc2ncnn12`, the melting point fell in the range of 108 to 111 °C.

For `O=C(Cn1nnc2ccccc21)Nc1ccc(-n2nc(C(F)(F)F)cc2C2CC2)nc1`, the melting point fell in the range of 189 to 192 °C.

For `COc1ccc(N2C(=O)[C@H](O)[C@@H]2c2ccccc2)cc1`, the melting point was in the range of 211 to 212 °C.

Regarding `CSc1nc(C)cc(Cl)n1`, the melting point was 37 to 38 °C.

Consider `Cc1ccc2c(c1)C=Cn1c(n[nH]c1=O)C2`, for which the melting point lay in the range of 232 to 234 °C.

`Cn1c2ccc(C=O)cc2c2nc3ccccc3nc21` came in with a melting point of 228 to 230 °C.

As for `CC(=NO)c1ccnc(Cl)c1`, the melting point was found to be 143 °C.

As to `COc1cc(OC)c2ccsc2c1`, the melting point was in the range of 78 to 80 °C.

Compound `CCNC(=O)Oc1ccccc1` gave a melting point of 49 to 50 °C.

For the compound `Cc1ccc(-n2c(-c3ccccc3)cc(Br)c2-c2ccccc2)cc1`, the melting point is 201 to 202 °C.

Take `COc1cccc(CCNC(=O)N2CCC(Nc3ccc(CCNC[C@H](O)COc4ccc(O)cc4)cc3)CC2)c1`: the melting point lay in the range of 103 to 108 °C.

Regarding `COc1cccc(OC)c1C(=O)NC(=S)NNC(=O)c1cnc2ccccc2c1`, the melting point was in the range of 242 to 243 °C.

Take `Cc1c(F)c(F)c(F)c(F)c1C(=O)O`: the melting point is 80 to 82 °C.

`O=[N+]([O-])c1cccc(-c2cc(C(O)c3ccnc(Cl)c3)cc3ccoc23)c1` (centres undefined) yielded a melting point of 178 to 180 °C.

Take `CCOC(=O)c1c2n(c3cc(N4CCNCC4)c(F)cc3c1=O)C(C)S2` (centres undefined): the melting point amounted to 224 °C.

`CS(=O)(=O)c1ccc2ccc(C(=O)O)cc2c1` yielded a melting point of 273 to 274 °C.

In the case of `COc1ccc(Oc2cccc3ncnc(NC(=O)Nc4cccc(OC)c4)c23)cc1`, the melting point is 209 to 210 °C.

Consider `COc1cccc(C(O)c2cc(Cl)ccc2N(CC(N)=O)S(=O)(=O)c2ccc(OC)c(OC)c2)c1` (centres undefined), for which the melting point came to 100 °C.

Take `CC(O)c1ccc2c3c1ccn3C(=O)CNC2` (centres undefined): the melting point lay within 295 to 297 °C.

Compound `Nc1ccc2ccc(-c3ccc(Cl)cc3)nc2n1` showed a melting point of 130 °C.

On to `CS(=O)(=O)c1ccc(-c2cc(=O)n(Cc3ccc(F)cc3)nc2-c2ccc(F)cc2)cc1`, for which the melting point was 150 to 151 °C.

For the compound `CCOC(=O)C(C)(C)Oc1ccc(CNc2ccccc2)cc1`, the melting point fell in the range of 45 to 46 °C.

For `COC1=NC(=O)c2c1cc1ccc3c(c1c2-c1ccc2c(c1)OCO2)OCO3`, the melting point is 306 to 308 °C.

In turn, `O=c1ccc(-c2cc(Cl)c(O)c(Cl)c2)n[nH]1` showed a melting point of more than 300 °C.
